Data taken from the NIST ThermoML archive (doi:10.1021/je1005483).

Columns and labels:
[1] = xn = mol fraction of the nth substance listed; conditions: 101.3 kPa, Liquid; for speed of sound: 298.15 K
[2] = 101.3 kPa, Liquid; for speed of sound: 298.15 K
[3] = molar heat capacity at constant pressure; conditions: 298.15 K; 101.3 kPa; Liquid; Flow calorimetry

CC#N [acetonitrile] + CC(=O)N(C)C
Conditions | speed of sound [m/s]
[1], x2 = 0 | 1279.6

[1], x2 = 0
Conditions | mass density [kg/m3]
308.15 K | 765.735
318.15 K | 755.763

CC(=O)N(C)C [N,N-dimethylethanamide] + CC#N
[1]
Conditions | speed of sound [m/s]
x1 = 0.04872 | 1286.5
x1 = 0.1004 | 1297.5
x1 = 0.1898 | 1315.5
x1 = 0.2932 | 1336.4
x1 = 0.4046 | 1357.3
x1 = 0.503 | 1375.5
x1 = 0.6044 | 1393.7
x1 = 0.7074 | 1410.8
x1 = 0.8048 | 1427.5
x1 = 0.9035 | 1440
x1 = 1 | 1458.7

mass density [kg/m3], [1]
Conditions | 308.15 K | 318.15 K
x1 = 0.00994 | 768.688 | –
x1 = 0.01091 | – | 759.018
x1 = 0.02031 | 771.713 | –
x1 = 0.02054 | – | 761.841
x1 = 0.03016 | 774.535 | –
x1 = 0.0309 | – | 764.83
x1 = 0.04069 | 777.504 | –
x1 = 0.04289 | – | 768.228
x1 = 0.05104 | 780.389 | –
x1 = 0.0529 | – | 771.009
x1 = 0.05848 | 782.424 | –
x1 = 0.05906 | – | 772.711
x1 = 0.06932 | 785.313 | –
x1 = 0.06978 | – | 775.606
x1 = 0.08223 | 788.745 | –
x1 = 0.08535 | – | 779.778
x1 = 0.08742 | – | 780.299
x1 = 0.09057 | 790.902 | –
x1 = 0.1009 | 793.541 | –
x1 = 0.1022 | – | 784.094
x1 = 0.1438 | – | 794.432
x1 = 0.1497 | 805.533 | –
x1 = 0.1834 | – | 803.73
x1 = 0.1884 | 814.49 | –
x1 = 0.2301 | – | 813.975
x1 = 0.237 | 824.887 | –
x1 = 0.2935 | – | 826.829
x1 = 0.3015 | 837.769 | –
x1 = 0.387 | – | 843.966
x1 = 0.4044 | 856.101 | –
x1 = 0.503 | – | 862.53
x1 = 0.5085 | 872.475 | –
x1 = 0.6026 | – | 876.476
x1 = 0.6251 | 888.44 | –
x1 = 0.7047 | – | 889.23
x1 = 0.7059 | 898.16 | –
x1 = 0.8034 | 908.919 | –
x1 = 0.8085 | – | 900.68
x1 = 0.9024 | 918.675 | –
x1 = 0.909 | – | 910.546
x1 = 0.9117 | 919.547 | –
x1 = 0.9144 | – | 911.049
x1 = 0.9215 | – | 911.696
x1 = 0.9216 | 920.459 | –
x1 = 0.932 | – | 912.659
x1 = 0.9322 | 921.402 | –
x1 = 0.941 | 922.202 | –
x1 = 0.9414 | – | 913.506
x1 = 0.9515 | 923.129 | –
x1 = 0.9546 | – | 914.681
x1 = 0.9614 | 924 | –
x1 = 0.963 | – | 915.423
x1 = 0.9712 | 924.844 | –
x1 = 0.9716 | – | 916.181
x1 = 0.9809 | – | 916.988
x1 = 0.9811 | 925.7 | –
x1 = 0.9893 | 926.398 | –
x1 = 0.9911 | – | 917.856
x1 = 1 | 927.294 | 918.616

CC1COC(=O)O1 (configuration not stated) [4-methyl-1,3-dioxolan-2-one]
Conditions | molar heat capacity at constant pressure [J/K/mol] | speed of sound [m/s]
[2] | – | 1443
[3] | 166.98 | –

[2]
Conditions | mass density [kg/m3]
308.15 K | 1188.73
318.15 K | 1179.31

CC#N [acetonitrile]
Conditions | speed of sound [m/s]
[2] | 1279.6

[2]
Conditions | mass density [kg/m3]
308.15 K | 765.735
318.15 K | 755.763

CC(=O)N(C)C [N,N-dimethylethanamide]
Conditions | speed of sound [m/s]
[2] | 1458.7

[2]
Conditions | mass density [kg/m3]
308.15 K | 927.294
318.15 K | 918.616

CC#N [acetonitrile] + CC1COC(=O)O1
Conditions | speed of sound [m/s]
[1], x2 = 0 | 1279.6

[1], x2 = 0
Conditions | mass density [kg/m3]
308.15 K | 765.735
318.15 K | 755.763
